“And” between values parts separate entries of the source, which are not always exact repeats. Equal entries are not always repeated. Inconclusive results and toxic doses are left out. No stated cut-off is given here; in the data, active means T/C of 150% or more; inactive means T/C below 125%.
System: L1210 leukemia ip in BDF1 mice, survival T/C
Assay: NCI In Vivo Anticancer Drug Screen. Data for tumor model L1210 Leukemia (intraperitoneal) in B6D2F1 (BDF1) mice
Conditions: endpoint: mean survival time, higher = longer survival
In short: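 Ratio derived from survival: compound-dosed mice over vehicle-dosed mice, all bearing a transplantable tumor.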

[1] = dose: 50.0 mg/kg/injection, schedule: Q01DX001 (ip), vehicle: carboxymethylcellulose (CMC)
[2] = dose: 100.0 mg/kg/injection, schedule: Q01DX001 (ip), vehicle: carboxymethylcellulose (CMC)
[3] = dose: 200.0 mg/kg/injection, schedule: Q01DX001 (ip), vehicle: carboxymethylcellulose (CMC)
[4] = dose: 400.0 mg/kg/injection, schedule: Q01DX001 (ip), vehicle: carboxymethylcellulose (CMC)
[5] = dose: 100.0 mg/kg/injection, schedule: Q04DX003 (ip), vehicle: saline with Tween-80
[6] = dose: 200.0 mg/kg/injection, schedule: Q04DX003 (ip), vehicle: saline with Tween-80
[7] = dose: 50.0 mg/kg/injection, schedule: Q01DX009 (ip), vehicle: saline
[8] = dose: 100.0 mg/kg/injection, schedule: Q01DX009 (ip), vehicle: saline
[9] = dose: 100.0 mg/kg/injection, schedule: Q04DX003 (ip), vehicle: saline
[10] = dose: 100.0 mg/kg/injection, schedule: Q01DX009 (ip), vehicle: Klucel (hydroxypropylcellulose) (HPC)
[11] = dose: 200.0 mg/kg/injection, schedule: Q01DX009 (ip), vehicle: Klucel (hydroxypropylcellulose) (HPC)
[12] = dose: 200.0 mg/kg/injection, schedule: Q01DX009 (ip), vehicle: saline
[13] = dose: 200.0 mg/kg/injection, schedule: Q04DX003 (ip), vehicle: saline
[14] = dose: 100.0 mg/kg/injection, schedule: Q01DX009 (ip), vehicle: other
[15] = dose: 200.0 mg/kg/injection, schedule: Q01DX009 (ip), vehicle: other
[16] = dose: 400.0 mg/kg/injection, schedule: Q01DX009 (ip), vehicle: other
[17] = dose: 400.0 mg/kg/injection, schedule: Q04DX003 (ip), vehicle: saline

Measured: T/C

CN(C)c1ccc(/C=N/NC=O)c(Cl)c1
inactive: dose: 10.0 mg/kg/injection, schedule: Q01DX001 (ip), vehicle: acetone 103 % of control | dose: 20.0 mg/kg/injection, schedule: Q01DX001 (ip), vehicle: acetone 110 % of control | dose: 40.0 mg/kg/injection, schedule: Q01DX001 (ip), vehicle: acetone 95 % of control

O=C(O)c1c(-c2ccccc2)[nH]c2ccccc2c1=O
inactive: dose: 100.0 mg/kg/injection, schedule: Q04DX003 (ip), vehicle: Klucel (hydroxypropylcellulose) (HPC) 88 % of control | dose: 200.0 mg/kg/injection, schedule: Q04DX003 (ip), vehicle: Klucel (hydroxypropylcellulose) (HPC) 87 % of control | dose: 400.0 mg/kg/injection, schedule: Q04DX003 (ip), vehicle: Klucel (hydroxypropylcellulose) (HPC) 90 % of control

CCSC(C(OC(C)=O)C(OC(C)=O)C(OC(C)=O)C(COC(C)=O)OC(C)=O)n1cc(C)c(=O)[nH]c1=O (configuration not stated)
inactive: [1] 100 % of control and 97 % of control | [2] 97 % of control and 94 % of control | [3] 100 % of control | [4] 100 % of control and 103 % of control

CCCCOC(=O)c1ccc(OC(=O)Nc2cc(OC)ccc2OC)cc1
inactive: [5] 95 % of control | [6] 91 % of control | dose: 400.0 mg/kg/injection, schedule: Q04DX003 (ip), vehicle: saline with Tween-80 90 % of control

C=CSc1ccccc1
inactive: dose: 100.0 mg/kg/injection, schedule: Q01DX009 (ip), vehicle: saline with Tween-80 105 % of control | dose: 200.0 mg/kg/injection, schedule: Q01DX009 (ip), vehicle: saline with Tween-80 93 % of control

O=C(OCCCCCOC(=O)c1cccc([N+](=O)[O-])c1)c1cccc([N+](=O)[O-])c1
inactive: dose: 100.0 mg/kg/injection, schedule: Q01DX001 (ip), vehicle: other 93 % of control | dose: 200.0 mg/kg/injection, schedule: Q01DX001 (ip), vehicle: other 96 % of control | dose: 400.0 mg/kg/injection, schedule: Q01DX001 (ip), vehicle: other 95 % of control

CC1CCCCN1CCCO (configuration not stated)
inactive: dose: 25.0 mg/kg/injection, schedule: Q01DX009 (ip), vehicle: saline 87 % of control | dose: 25.0 mg/kg/injection, schedule: Q04DX003 (ip), vehicle: saline 103 % of control | [7] 91 % of control | dose: 50.0 mg/kg/injection, schedule: Q04DX003 (ip), vehicle: saline 112 % of control | [8] 89 % of control | [9] 92 % of control and 95 % of control

N#CS/C=C/C(N)=O
inactive: dose: 1.0 mg/kg/injection, schedule: Q01DX001 (ip), vehicle: saline 101 % of control | dose: 2.0 mg/kg/injection, schedule: Q01DX001 (ip), vehicle: saline 99 % of control | dose: 2.0 mg/kg/injection, schedule: Q01DX009 (ip), vehicle: saline 103 % of control | dose: 4.0 mg/kg/injection, schedule: Q01DX001 (ip), vehicle: saline 95 % of control | dose: 4.0 mg/kg/injection, schedule: Q01DX009 (ip), vehicle: saline 103 % of control | dose: 8.0 mg/kg/injection, schedule: Q01DX001 (ip), vehicle: saline 94 % of control | dose: 8.0 mg/kg/injection, schedule: Q01DX009 (ip), vehicle: saline 105 % of control

C=C(C)C1Cc2c(ccc3c(=O)c4c(oc23)C(O)Oc2cc(OC)c(OC)cc2-4)O1 (configuration not stated)
inactive: [10] 93 % of control | [11] 95 % of control | dose: 400.0 mg/kg/injection, schedule: Q01DX009 (ip), vehicle: Klucel (hydroxypropylcellulose) (HPC) 97 % of control

NCCCOc1ccc([N+](=O)[O-])cc1Cl
inactive: [7] 106 % of control | dose: 75.0 mg/kg/injection, schedule: Q01DX001 (ip), vehicle: saline 98 % of control | [8] 110 % of control | [9] 111 % of control | dose: 150.0 mg/kg/injection, schedule: Q01DX001 (ip), vehicle: saline 98 % of control | [12] 101 % of control | [13] 101 % of control

Cc1cc(=O)c2cc(C(=O)c3ccccc3)ccc2[nH]1
inactive: dose: 100.0 mg/kg/injection, schedule: Q01DX001 (ip), vehicle: saline 101 % of control | dose: 200.0 mg/kg/injection, schedule: Q01DX001 (ip), vehicle: saline 98 % of control | dose: 400.0 mg/kg/injection, schedule: Q01DX001 (ip), vehicle: saline 107 % of control

C=C1C(O)CC2CC1C2(C)C (configuration not stated)
inactive: [5] 92 % of control | [6] 92 % of control

Cc1cc(N(CCOS(C)(=O)=O)CCOS(C)(=O)=O)ccc1C=Nc1ccc(C(=O)O)cc1
inactive: dose: 2.5 mg/kg/injection, schedule: Q04DX003 (ip), vehicle: Klucel (hydroxypropylcellulose) (HPC) 108 % of control | dose: 5.0 mg/kg/injection, schedule: Q04DX003 (ip), vehicle: Klucel (hydroxypropylcellulose) (HPC) 113 % of control | dose: 6.6 mg/kg/injection, schedule: Q04DX003 (ip), vehicle: Klucel (hydroxypropylcellulose) (HPC) 102 % of control | dose: 10.0 mg/kg/injection, schedule: Q04DX003 (ip), vehicle: Klucel (hydroxypropylcellulose) (HPC) 103 % of control | dose: 15.0 mg/kg/injection, schedule: Q04DX003 (ip), vehicle: Klucel (hydroxypropylcellulose) (HPC) 118 % of control | dose: 20.0 mg/kg/injection, schedule: Q04DX003 (ip), vehicle: Klucel (hydroxypropylcellulose) (HPC) 113 % of control | dose: 40.0 mg/kg/injection, schedule: Q04DX003 (ip), vehicle: Klucel (hydroxypropylcellulose) (HPC) 114 % of control

O=CN(c1ccccc1)c1ccccc1
inactive: [14] 109 % of control | [9] 100 % of control | [15] 106 % of control | [13] 102 % of control | [16] 106 % of control | [17] 109 % of control

CCOC(=O)/C=C/C(=O)O
inactive: [1] 111 % of control | dose: 75.0 mg/kg/injection, schedule: Q01DX001 (ip), vehicle: carboxymethylcellulose (CMC) 86 % of control | [2] 105 % of control | [9] 95 % of control and 109 % of control | [3] 114 % of control | [13] 103 % of control and 109 % of control | [4] 101 % of control | [17] 95 % of control and 97 % of control

CCCCCCCCCCCCCCCCC(C)(O)C#CC(C)(O)CCCCCCCCCCCCCCCC (configuration not stated)
inactive: [14] 101 % of control | dose: 100.0 mg/kg/injection, schedule: Q04DX002 (ip), vehicle: saline with Tween-80 101 % of control | [15] 97 % of control | dose: 200.0 mg/kg/injection, schedule: Q04DX002 (ip), vehicle: saline with Tween-80 90 % of control | [16] 101 % of control | dose: 400.0 mg/kg/injection, schedule: Q04DX002 (ip), vehicle: saline with Tween-80 97 % of control

CN(C)P(=O)(N(C)C)N(C)C.[Cl][Al]([Cl])[Cl]
inactive: [7] 91 % of control | [8] 88 % of control | [12] 95 % of control

O=C(OCCBr)c1ccc([N+](=O)[O-])cc1
inactive: dose: 50.0 mg/kg/injection, schedule: Q01DX009 (ip), vehicle: Klucel (hydroxypropylcellulose) (HPC) 100 % of control | [10] 106 % of control | [11] 97 % of control

C=CCSc1nc(N)nc2c1nc(SCC=C)n2C1OC(CO)C(O)C1O (configuration not stated)
inactive: dose: 50.0 mg/kg/injection, schedule: Q01DX005 (ip), vehicle: saline 93 % of control | dose: 100.0 mg/kg/injection, schedule: Q01DX005 (ip), vehicle: saline 102 % of control | dose: 200.0 mg/kg/injection, schedule: Q01DX005 (ip), vehicle: saline 100 % of control
